Measurements as given in patent publication US10829501B2 (BRISTOL-MYERS SQUIBB COMPANY, priority 2016, dated 2020).
Where a name gives a salt, the structure may show the parent alone.

target: ROCK2 (Homo sapiens, UniProt O75116); assay: ROCK2 kinase inhibition assay (LABCHIP 3000 Reader, FITC peptide substrate);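 further: rho kinase reaction read by separating phosphorylated from unphosphorylated peptide on chip, with inhibition of kinase activity computed per concentration across a dose-response series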
Sequence (O75116 whole entry, species assumed): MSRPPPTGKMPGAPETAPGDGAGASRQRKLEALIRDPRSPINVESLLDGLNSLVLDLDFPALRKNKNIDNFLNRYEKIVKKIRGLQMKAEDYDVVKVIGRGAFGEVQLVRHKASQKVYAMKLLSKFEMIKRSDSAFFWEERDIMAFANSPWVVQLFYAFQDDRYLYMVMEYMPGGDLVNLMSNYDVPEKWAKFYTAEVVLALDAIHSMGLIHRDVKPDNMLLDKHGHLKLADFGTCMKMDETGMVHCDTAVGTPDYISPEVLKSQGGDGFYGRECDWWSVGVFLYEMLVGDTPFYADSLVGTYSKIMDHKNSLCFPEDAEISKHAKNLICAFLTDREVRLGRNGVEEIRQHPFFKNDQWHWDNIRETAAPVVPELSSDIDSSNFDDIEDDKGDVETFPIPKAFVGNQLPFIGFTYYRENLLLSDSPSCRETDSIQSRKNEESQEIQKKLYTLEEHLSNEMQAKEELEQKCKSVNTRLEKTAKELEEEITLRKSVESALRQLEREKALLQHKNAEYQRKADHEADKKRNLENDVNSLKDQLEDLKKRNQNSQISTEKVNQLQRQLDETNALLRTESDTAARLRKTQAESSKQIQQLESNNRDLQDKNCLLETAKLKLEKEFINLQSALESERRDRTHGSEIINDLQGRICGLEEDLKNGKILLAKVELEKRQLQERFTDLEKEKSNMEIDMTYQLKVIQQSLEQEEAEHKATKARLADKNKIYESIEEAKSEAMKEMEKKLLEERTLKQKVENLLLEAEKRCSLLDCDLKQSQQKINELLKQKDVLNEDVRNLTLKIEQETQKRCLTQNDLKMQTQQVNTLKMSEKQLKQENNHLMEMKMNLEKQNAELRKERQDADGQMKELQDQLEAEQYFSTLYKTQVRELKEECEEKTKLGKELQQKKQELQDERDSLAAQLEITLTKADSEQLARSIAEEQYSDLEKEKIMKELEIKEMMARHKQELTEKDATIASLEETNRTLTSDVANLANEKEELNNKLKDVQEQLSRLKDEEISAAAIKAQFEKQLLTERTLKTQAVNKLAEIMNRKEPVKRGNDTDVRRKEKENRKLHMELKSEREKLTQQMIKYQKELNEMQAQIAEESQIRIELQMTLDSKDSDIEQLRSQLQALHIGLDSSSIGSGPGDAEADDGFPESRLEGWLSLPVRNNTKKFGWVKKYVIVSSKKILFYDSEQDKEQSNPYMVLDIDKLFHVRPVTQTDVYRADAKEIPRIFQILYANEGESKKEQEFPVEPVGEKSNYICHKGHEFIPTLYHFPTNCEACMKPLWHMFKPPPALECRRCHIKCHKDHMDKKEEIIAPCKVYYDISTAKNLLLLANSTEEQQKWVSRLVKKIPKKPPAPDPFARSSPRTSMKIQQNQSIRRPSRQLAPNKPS

IC50	Compound
50 to 250 nM	N#Cc1cc(C(=O)N[C@H]2CC3(C2)C[C@H](Oc2ncccc2C(N)=O)C3)ccc1F (stereo partly drawn) [Example 156, 2-(((aR)-6-(3-cyano-4-fluorobenzamido)spiro[3.3]heptan-2-yl)oxy) nicotinamide]
50 to 250 nM	N#Cc1cccc(C(=O)N[C@H]2CC3(C2)C[C@H](Oc2ncccc2C(N)=O)C3)c1 (stereo partly drawn) [Example 158, 2-(((aR)-6-(3-cyanobenzamido)spiro[3.3]heptan-2-yl)oxy) nicotinamide]
50 to 250 nM	NC(=O)c1cccnc1O[C@H]1CC2(C[C@H](NC(=O)c3cc4ccccc4cn3)C2)C1 (stereo partly drawn) [Example 159, N-((aR)-6-((3-carbamoylpyridin-2-yl)oxy)spiro[3.3]heptan-2-yl)isoquinoline-3-carboxamide]
50 to 250 nM	N#Cc1cccc(-c2ccc(C(=O)N[C@H]3CC4(C3)C[C@H](Oc3ncccc3C(N)=O)C4)cc2)c1 (stereo partly drawn) [Example 160, 2-(((aR)-6-(3′-cyano-[1,1′-biphenyl]-4-ylcarboxamido)spiro[3.3]heptan-2-yl)oxy) nicotinamide]
5 to 50 nM	N#Cc1ccc(-c2ccc(C(=O)N[C@H]3CC4(C3)C[C@H](Oc3ncccc3C(N)=O)C4)cn2)cc1 (stereo partly drawn) [Example 161, N-((aR)-6-((3-carbamoylpyridin-2-yl)oxy)spiro[3.3]heptan-2-yl)-6-(4-cyanophenyl) nicotinamide]
250 to 2500 nM	Cc1nc(-c2ccccc2)oc1C(=O)N[C@H]1CC2(C1)C[C@H](Oc1ncccc1C(N)=O)C2 (stereo partly drawn) [Example 164, N-((aR)-6-((3-carbamoylpyridin-2-yl)oxy)spiro[3.3]heptan-2-yl)-4-methyl-2-phenyloxazole-5-carboxamide]
5 to 50 nM	CC(C)(O)COc1ccn2c(C(=O)NC3CC4(C3)CC(Oc3ncccc3C(N)=O)C4)cnc2c1 (stereo not shown) [Example 166, N-((αR)-6-((3-carbamoylpyridin-2-yl)oxy)spiro[3.3]heptan-2-yl)-7-(2-hydroxy-2-methylpropoxy) imidazo[1,2-a]pyridine-3-carboxamide]
< 5 nM	COc1ccc(C(N)=O)c(O[C@H]2CC3(C[C@H](NC(=O)c4cnn5c(C6CC6)c(OCC(C)(C)O)ccc45)C3)C2)n1 (stereo partly drawn) [Example 167, N-((aR)-6-((3-carbamoyl-6-methoxypyridin-2-yl)oxy)spiro[3.3]heptan-2-yl)-7-cyclopropyl-6-(2-hydroxy-2-methylpropoxy)pyrazolo [1,5-a]pyridine-3-carboxamide]
5 to 50 nM	NC(=O)c1cccnc1O[C@H]1CC2(C[C@H](NC(=O)c3nn(C(F)F)c4cc(OCc5ccccc5)ccc34)C2)C1 (stereo partly drawn) [Example 171, 6-(benzyloxy)-N-((aR)-6-((3-carbamoylpyridin-2-yl)oxy)spiro[3.3]heptan-2-yl)-1-(difluoromethyl)-1H-indazole-3-carboxamide, trifluoroacetate]
5 to 50 nM	NC(=O)c1cccnc1OC1CC2(CC(NC(=O)c3nnc4cc(N5CCOCC5)ccn34)C2)C1 [Example 179, N-((aR)-6-((3-carbamoylpyridin-2-yl)oxy)spiro[3.3]heptan-2-yl)-7-morpholino-[1,2,4] triazolo[4,3-a]pyridine-3-carboxamide]
< 5 nM	[2H]C([2H])([2H])n1cc(-c2cc(C#N)cc(C(=O)N[C@H]3CC4(C3)C[C@H](Oc3ncccc3C(N)=O)C4)c2)cn1 (stereo partly drawn) [Example 181, 2-(((aR)-6-(3-cyano-5-(1-(methyl-d3)-1H-pyrazol-4-yl)benzamido)spiro [3.3]heptan-2-yl)oxy)nicotinamide, trifluoroacetate]
< 5 nM	Cc1nn(C)cc1-c1cc(C#N)cc(C(=O)N[C@H]2CC3(C2)C[C@H](Oc2ncccc2C(N)=O)C3)c1 (stereo partly drawn) [Example 182, 2-(((aR)-6-(3-cyano-5-(1,3-dimethyl-1H-pyrazol-4-yl)benzamido)spiro [3.3]heptan-2-yl)oxy)nicotinamide, trifluoroacetate]
< 5 nM	Cc1c(-c2cc(C#N)cc(C(=O)N[C@H]3CC4(C3)C[C@H](Oc3ncccc3C(N)=O)C4)c2)cnn1C (stereo partly drawn) [Example 185, 2-(((aR)-6-(3-cyano-5-(1,5-dimethyl-1H-pyrazol-4-yl)benzamido)spiro[3.3]heptan-2-yl)oxy)nicotinamide, trifluoroacetate]

Second part, the compound before the results:

Compound	IC50
Cn1c(C(=O)N[C@H]2CC3(C2)C[C@H](Oc2ncccc2C(N)=O)C3)cc2ccc(Cl)cc21 (stereo partly drawn) [Example 154, N-((aR)-6-((3-carbamoylpyridin-2-yl)oxy)spiro[3.3]heptan-2-yl)-6-chloro-1-methyl-1H-indole-2-carboxamide]	50 to 250 nM
N#Cc1ccc(F)c(C(=O)N[C@H]2CC3(C2)C[C@H](Oc2ncccc2C(N)=O)C3)c1 (stereo partly drawn) [Example 155, 2-(((aR)-6-(5-cyano-2-fluorobenzamido)spiro[3.3]heptan-2-yl)oxy)nicotinamide]	250 to 2500 nM
N#Cc1cc(F)cc(C(=O)N[C@H]2CC3(C2)C[C@H](Oc2ncccc2C(N)=O)C3)c1 (stereo partly drawn) [Example 157, 2-(((aR)-6-(3-cyano-5-fluorobenzamido)spiro[3.3]heptan-2-yl)oxy) nicotinamide]	50 to 250 nM
NC(=O)c1cccnc1O[C@H]1CC2(C[C@H](NC(=O)c3ccc(-c4cccc(F)c4)cc3)C2)C1 (stereo partly drawn) [Example 162, 2-(((aR)-6-(3′-fluoro-[1,1′-biphenyl]-4-ylcarboxamido)spiro[3.3]heptan-2-yl)oxy)nicotinamide]	5 to 50 nM
CC1(C)Cc2cccc(C(=O)N[C@H]3CC4(C3)C[C@H](Oc3ncccc3C(N)=O)C4)c2O1 (stereo partly drawn) [Example 163, 2-(((aR)-6-(2,2-dimethyl-2,3-dihydrobenzofuran-7-carboxamido)spiro[3.3]heptan-2-yl)oxy) nicotinamide]	250 to 2500 nM
NC(=O)c1cccnc1O[C@H]1CC2(C[C@H](NC(=O)c3ncoc3-c3ccccc3)C2)C1 (stereo partly drawn) [Example 165, N-((aR)-6-((3-carbamoylpyridin-2-yl)oxy)spiro[3.3]heptan-2-yl)-5-phenyloxazole-4-carboxamide]	50 to 250 nM
COc1ccc(C(N)=O)c(O[C@H]2CC3(C[C@H](NC(=O)c4cnn5c(CCC(F)(F)F)c(OCC(C)(C)O)ccc45)C3)C2)n1 (stereo partly drawn) [Example 168, N-((aR)-6-((3-carbamoyl-6-methoxypyridin-2-yl)oxy)spiro[3.3]heptan-2-yl)-6-(2-hydroxy-2-methylpropoxy)-7-(3,3,3-trifluoropropyl)pyrazolo [1,5-a]pyridine-3-carboxamide]	< 5 nM
COc1ccc(C(N)=O)c(O[C@H]2CC3(C[C@H](NC(=O)c4nn(CC(C)(C)O)c5ccc(F)cc45)C3)C2)n1 (stereo partly drawn) [Example 169, N-((aR)-6-((3-carbamoyl-6-methoxypyridin-2-yl)oxy)spiro[3.3]heptan-2-yl)-5-fluoro-1-(2-hydroxy-2-methylpropyl)-1H-indazole-3-carboxamide]	5 to 50 nM
NC(=O)c1cccnc1O[C@H]1CC2(C[C@H](NC(=O)c3cnc4c(C5CC5)cccn34)C2)C1 (stereo partly drawn) [Example 170, N-((aR)-6-((3-carbamoylpyridin-2-yl)oxy)spiro[3.3]heptan-2-yl)-8-cyclopropylimidazo[1,2-a]pyridine-3-carboxamide, Trifluoroacetate]	50 to 250 nM
NC(=O)c1cccnc1O[C@H]1CC2(C[C@H](NC(=O)c3nn(C(F)F)c4cc(Br)ccc34)C2)C1 (stereo partly drawn) [Example 172, 6-bromo-N-((aR)-6-((3-carbamoylpyridin-2-yl)oxy)spiro[3.3]heptan-2-yl)-1-(difluoromethyl)-1H-indazole-3-carboxamide, trifluoroacetate]	5 to 50 nM
Cn1nc(C(=O)N[C@H]2CC3(C2)C[C@H](Oc2ncccc2C(N)=O)C3)c2ccc(F)cc21 (stereo partly drawn) [Example 173, N-((aR)-6-((3-carbamoylpyridin-2-yl)oxy)spiro[3.3]heptan-2-yl)-6-fluoro-1-methyl-1H-indazole-3-carboxamide, trifluoroacetate]	5 to 50 nM
[2H]C([2H])([2H])n1nc(C(=O)N[C@H]2CC3(C2)C[C@H](Oc2ncccc2C(N)=O)C3)c2ccc(F)cc21 (stereo partly drawn) [Example 174, 6-fluoro-1-(^2H3)methyl-N-[(aR)-6-[(3-carbamoylpyridin-2-yl)oxy]spiro[3.3]heptan-2-yl]-1H-indazole-3-carboxamide, trifluoroacetate]	5 to 50 nM
NC(=O)c1cccnc1O[C@H]1CC2(C[C@H](NC(=O)c3nn(CC(F)F)c4cc(F)ccc34)C2)C1 (stereo partly drawn) [Example 175, N-((aR)-6-((3-carbamoylpyridin-2-yl)oxy)spiro[3.3]heptan-2-yl)-1-(2,2-difluoroethyl)-6-fluoro-1H-indazole-3-carboxamide, trifluoroacetate]	< 5 nM
[2H]C([2H])([2H])n1nc2cc(F)ccc2c1C(=O)N[C@H]1CC2(C1)C[C@H](Oc1ncccc1C(N)=O)C2 (stereo partly drawn) [Example 176, 6-fluoro-2-(^2H3)methyl-N-[(aR)-6-[(3-carbamoylpyridin-2-yl)oxy]spiro[3.3]heptan-2-yl]-2H-indazole-3-carboxamide, trifluoroacetate]	250 to 2500 nM
COc1cccc(-c2ccc3c(C(=O)N[C@H]4CC5(C4)C[C@H](Oc4ncccc4C(N)=O)C5)nn(C(F)F)c3c2)c1 (stereo partly drawn) [Example 177, N-((aR)-6-((3-carbamoylpyridin-2-yl)oxy)spiro[3.3]heptan-2-yl)-1-(difluoromethyl)-6-(3-methoxyphenyl)-1H-indazole-3-carboxamide, trifluoroacetate]	5 to 50 nM
[H][C@]1(Oc2ncccc2C(N)=O)C[C@@]2(C[C@H](NC(=O)c3cc(C#N)cc(-c4cnc(C)s4)c3)C2)C1 (stereo partly drawn) [Example 180, 2-(((aR)-6-(3-cyano-5-(2-methylthiazol-5-yl)benzamido)spiro[3.3]heptan-2-yl)oxy)nicotinamide, TFA]	< 5 nM
N#Cc1cc(C(=O)N[C@H]2CC3(C2)C[C@H](Oc2ncccc2C(N)=O)C3)cc(C2CC2)c1 (stereo partly drawn) [Example 183, 2-(((aR)-6-(3-cyano-5-cyclopropylbenzamido)spiro[3.3]heptan-2-yl)oxy) nicotinamide, trifluoroacetate]	5 to 50 nM
Cn1cc(-c2cc(C#N)cc(C(=O)N[C@H]3CC4(C3)C[C@H](Oc3ncccc3C(N)=O)C4)c2)c(C(F)(F)F)n1 (stereo partly drawn) [Example 184, 2-(((aR)-6-(3-cyano-5-(1-methyl-3-(trifluoromethyl)-1H-pyrazol-4-yl)benzamido)spiro[3.3]heptan-2-yl)oxy)nicotinamide, trifluoroacetate]	5 to 50 nM
